# The supplement of paper PMC10307832
# Tests used:
# Assay in all cases: relative viability (nuclei count vs DMSO), 5 days (fraction); higher = more cells survive
# Entinostat + Decitabine = compound: Nc1ccccc1NC(=O)c1ccc(CNC(=O)OCc2cccnc2)cc1 [Entinostat] + Nc1ncn([C@H]2C[C@H](O)[C@@H](CO)O2)c(=O)n1 [Decitabine] (partner 2 µM)
# Outline: (§1)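 Lung cancer cell lines, seeded in 1536-well plates, were treated the following day by pin tool with a single drug or with five library-drug doses (not always all listed) in √10 steps on top of a fixed anchor-drug dose. Cells were fixed and nuclei stained in one step after 5 days, and nuclei were counted. Relative viability is the nuclei count for treated wells divided by that for vehicle wells, reported as medians of duplicate plates.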
# SGI-1776 + Vorinostat = compound: CN1CCC(CNc2ccc3ncc(-c4cccc(OC(F)(F)F)c4)n3n2)CC1 [SGI-1776] + O=C(CCCCCCC(=O)Nc1ccccc1)NO [Vorinostat] (partner 1 µM)
# Outline: as §1
# SGI-1776 + Pictilisib = compound: CN1CCC(CNc2ccc3ncc(-c4cccc(OC(F)(F)F)c4)n3n2)CC1 [SGI-1776] + CS(=O)(=O)N1CCN(Cc2cc3nc(-c4cccc5[nH]ncc45)nc(N4CCOCC4)c3s2)CC1 [Pictilisib] (partner 1 µM)
# Outline: as §1
# [1] = compound: C1COCCN1C2=NC(=NC3=C2OC4=C3C=CC=N4)C5=CC(=CC=C5)NC(=O)C6=CN=C(C=C6)N + O=C(c1cc(Cc2n[nH]c(=O)c3ccccc23)ccc1F)N1CCN(C(=O)C2CC2)CC1 [Olaparib] (partner 8 µM)
# Outline: as §1
cell line,measurement,setting,value
UMC-11,relative viability,Entinostat + Decitabine; first compound 0.02 µM,0.65
same,relative viability,Entinostat + Decitabine; first compound 0.06325 µM,0.681
same,relative viability,Entinostat + Decitabine; first compound 0.2 µM,0.506
same,relative viability,Entinostat + Decitabine; first compound 0.6325 µM,0.386
same,relative viability,Entinostat + Decitabine; first compound 2 µM,0.725
same,relative viability,SGI-1776 + Vorinostat; first compound 0.08 µM,0.404
same,relative viability,SGI-1776 + Vorinostat; first compound 0.8 µM,0.378
same,relative viability,SGI-1776 + Vorinostat; first compound 2.53 µM,0.357
same,relative viability,SGI-1776 + Vorinostat; first compound 8 µM,0.228
same,relative viability,SGI-1776 + Pictilisib; first compound 0.08 µM,0.791
same,relative viability,SGI-1776 + Pictilisib; first compound 0.8 µM,0.987
same,relative viability,SGI-1776 + Pictilisib; first compound 2.53 µM,0.812
same,relative viability,SGI-1776 + Pictilisib; first compound 8 µM,0.498
same,relative viability,[1]; first compound 0.02 µM,0.374
same,relative viability,[1]; first compound 0.06325 µM,0.37
same,relative viability,[1]; first compound 0.2 µM,0.354
same,relative viability,[1]; first compound 0.6325 µM,0.359
same,relative viability,[1]; first compound 2 µM,0.246
